Test results as given in patent US9688634B2, “Pest control agent” (priority 2012, dated 2017).

Tested on: brown rice planthopper
Test: whole plant or invertebrate
Type: in vivo
Conditions: Oryza sativa, 120 h, immersion treatment of rice seedlings, second- to third-instar nymphs, 5 days after release, 25° C.

For CCCNc1cnccc1C#Cc1ccc(C(C)(C)C)cc1 [Compound No. 32, 4-((4-(tert-butyl)phenyl)ethynyl)-N-propylpyridine-3-amine], which mortality at 200 ppm is on record?
Its mortality at 200 ppm is at least 90%.

With C=CCc1cnccc1C#Cc1ccc(C(C)(C)C)cc1 [Compound No. 17, 3-allyl-4-((4-tert-butylphenyl)ethynyl)pyridine] as the molecule, how does the mortality at 200 ppm read?
The mortality at 200 ppm was at least 90%.

How did the mortality at 200 ppm turn out when CCNc1cnccc1C#Cc1ccc(C(C)(C)C)cc1 [Compound No. 112, 4-((4-tert-butylphenyl)ethynyl)-N-ethylpyridine-3-amine] was run?
The mortality at 200 ppm was at least 90%.

COc1cnccc1C#Cc1ccc(C(C)(C)C)cc1 [Compound No. 21, 4-((4-(tert-butyl)phenyl)ethynyl)-3-methoxypyridine] was tested. Which mortality at 200 ppm did it give?
The mortality at 200 ppm was at least 90%.

For CSc1cnccc1C#Cc1ccc(C(C)(C)C)cc1 [Compound No. 26, 4-((4-(tert-butyl)phenyl)ethynyl)-3-(methylthio)pyridine], which mortality at 200 ppm is on record?
Its mortality at 200 ppm is at least 90%.

Which mortality at 200 ppm does the source give for CC(C)(C)c1ccc(C#Cc2ccncc2N)cc1 [Compound No. 30, 4-((4-(tert-butyl)phenyl)ethynyl)pyridine-3-amine] here?
Its mortality at 200 ppm is at least 90%.

CC(C)(C)c1ccc(C#Cc2ccncc2Br)cc1 [Compound No. 10, 3-bromo-4-((4-(tert-butyl)phenyl)ethynyl)pyridine] was tested. Which mortality at 200 ppm did it give?
Its mortality at 200 ppm is at least 90%.

Tested on: Haemaphysalis longicornis
Test: Test for Examining Effect on Haemaphysalis longicornis (Test Example 3)
Type: in vivo
Conditions: treated plastic vial, young mites, 24 hours after contact, 25° C., dark
Experimental: Test for Examining Effect on Haemaphysalis longicornis
A solution prepared so that the concentration of each Invention Compound therein was 100 ppm was used to treat a plastic vial. After the liquid chemical was air-dried, young mites were placed in the vial. This vial was allowed to stand under constant dark conditions at 25° C. and a relative humidity of 80-100%. At 24 hours after the contact with the chemical, the number of dead mites was recorded. The mortality (%) was determined using the following calculation formula. […] Mortality (%)=((number of dead ticks)/(number of all ticks))×100

With C=CCc1cnccc1C#Cc1ccc(C(C)(C)C)cc1 [Compound No. 17, 3-allyl-4-((4-tert-butylphenyl)ethynyl)pyridine] as the molecule, how does the mortality at 100 ppm read?
Its mortality at 100 ppm is at least 90%.
